Assay results published in patent publication US10364263B2, “Cyclic phosphates and cyclic phosphoramidates for the treatment of neurologic disorders” (Retrophin, Inc., priority 2015, dated 2019).

Assays:
[1] = tested on: PANK2 silenced human neuroblastoma IMR32 cells (PANK2−/−); test: Coenzyme A assay in PANK2 silenced cells (LC-MS quantification of free CoA); assay type: cell-based; settings: compound added twice (24 h + 24 h), relative to 0.1% DMSO controls
How it was run: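 PANK2 shRNA-silenced IMR32 neuroblastoma cells were treated with compound (0.1% DMSO) for 24 h, then re-dosed with fresh compound for a further 24 h at 37 °C. TFA extracts of 1×10^6 cells were assayed for free CoA by LC-MS/MS (MRM 768.1→261.6/136.1). Results are given as fold change versus DMSO controls.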

[2] = Stability in human plasma; assay type: in vitro ADME; settings: human, plasma, 37° C.
Experimental: (§1) Compounds and positive control samples were dissolved in 100% DMSO at 3 mM. To investigate the stability of the test compounds in plasma, samples were made by diluting test compounds into plasma from the stock solutions to obtain a test compound concentration of 3 μM (0.1% DMSO). Before addition of a test compound, 990 μl of plasma were preincubated at 37° C. for 5 min in eppendorf. After addition of a test compound, 70 μl for each time point were transferred to a 96-deepwell plate, previously warmed at 37° C. in a DUBNOFF water bath. Each compound was tested at five time points, in duplicate (10, 20, 30, 40 and 60 min). At each time point, an aliquot of 50 μl was taken and transferred to a new 96-deepwell plate, and the reaction was stopped with 200 μl of 100% acetonitrile containing 0.1% formic acid and the appropriate internal standard. Then samples were centrifuged at 1100×g for 30 min at +4° C. and supernatants were transferred to a new 96-deepwell plate. Samples were evaporated under N2 and reconstituted in H2O/ACN 0.1% Formic Acid (98:2). Analysis was performed without a calibration curve (Acquity UPLC-Waters; SciexAPI4000). Time 0 was obtained by adding acetonitrile before addition of the test compound.

[3] = Stability in mouse plasma; assay type: in vitro ADME; settings: mouse, plasma; for t1/2, Mouse Plasma, Diastereoisomer B: 3 µM
Experimental: as §1

[4] = Diastereoisomer A (upfield shift in 31P NMR), read-out: t1/2, Human Plasma, Diastereoisomer A (converted)
[5] = Diastereoisomer B, read-out: t1/2, Human Plasma, Diastereoisomer B (converted)

| SMILES | PANK2−/− CoA (Fold Increase): fold increase in Coenzyme A (CoA) levels relative to controls [1] [Fold Increase] | half-life at 3 µM [2, 4] [min] | half-life at 3 µM [2, 5] [min] | half-life at 3 µM [3] [min] | t1/2, Mouse Plasma, Diastereoisomer B [3] [min] |
| --- | --- | --- | --- | --- | --- |
| COC(=O)CCNC(=O)[C@@H]1OP(=O)(OCOC(=O)c2ccncc2)OCC1(C)C (stereo partly drawn) [Compound No. 72, (((4R)-4-((3-methoxy-3-oxopropyl)carbamoyl)-5,5-dimethyl-2-oxido-1,3,2-dioxaphosphinan-2-yl)oxy)methyl isonicotinate] | 34.64 | < 9.6 | < 9.6 | < 9.6 | <9.6 |
| CC(C)(C)C(=O)OCO[P@@]1(=O)OCC(C)(C)[C@H](C(=O)NCCC(=O)OC2CCNC2)O1 (stereo partly drawn) [Compound No. 92, (((2S,4R)-5,5-dimethyl-2-oxido-4-((3-oxo-3-(pyrrolidin-3-yloxy)propyl)carbamoyl)-1,3,2-dioxaphosphinan-2-yl)oxy)methyl pivalate] | 5.13 | 27 | – | < 9.6 | – |
| CC(C)(C)C(=O)OCOP1(=O)OCC(C)(C)[C@H](C(=O)NCCC(=O)OC2CCOC2)O1 (stereo partly drawn) [Compound No. 94, (((4R)-5,5-dimethyl-2-oxido-4-((3-oxo-3-((tetrahydrofuran-3-yl)oxy)propyl)carbamoyl)-1,3,2-dioxaphosphinan-2-yl)oxy)methyl pivalate] | 13.14 | 40.8 | < 9.6 | < 9.6 | <9.6 |
| COC(=O)CCNC(=O)[C@@H]1OP(=O)(N[C@H](C)C(=O)OCc2cccnc2)OCC1(C)C (stereo partly drawn) [compound 28, methyl 3-((4R)-5,5-dimethyl-2-oxido-2-(((R)-1-oxo-1-(pyridin-3-ylmethoxy)propan-2-yl)amino)-1,3,2-dioxaphosphinane-4-carboxamido)propanoate] | 0.87 | > 60 | 39 | < 9.6 | <9.6 |
| COC(=O)CCNC(=O)[C@@H]1OP(=O)(OCCc2cccnc2)OCC1(C)C (stereo partly drawn) [compound 61, methyl 3-((4R)-5,5-dimethyl-2-oxido-2-(2-(pyridin-3-yl)ethoxy)-1,3,2-dioxaphosphinane-4-carboxamido)propanoate] | 1.93 | > 60 | > 60 | < 9.6 | <9.6 |
| C[C@H](NP1(=O)OCC(C)(C)[C@H](C(=O)NCCC(=O)OC(C)(C)C)O1)C(=O)OCCc1ccccc1 (stereo partly drawn) [compound 33, tert-butyl 3-((4R)-5,5-dimethyl-2-oxido-2-(((S)-1-oxo-1-phenethoxypropan-2-yl)amino)-1,3,2-dioxaphosphinane-4-carboxamido)propanoate] | 0.8 | > 60 | > 60 | < 9.6 | <9.6 |
| C[C@H](NP1(=O)OCC(C)(C)[C@H](C(=O)NCCC(=O)O)O1)C(=O)OCCc1ccccc1 (stereo partly drawn) [compound 41, 3-((4R)-5,5-dimethyl-2-oxido-2-(((S)-1-oxo-1-phenethoxypropan-2-yl)amino)-1,3,2-dioxaphosphinane-4-carboxamido)propanoic acid] | 2.02 | > 60 | – | 12 | – |
| COC(=O)CCNC(=O)[C@@H]1OP(=O)(N[C@H](C)C(=O)OCc2cnccn2)OCC1(C)C (stereo in doubt) [compound 42, methyl 3-((2S,4R)-5,5-dimethyl-2-oxido-2-(((R)-1-oxo-1-(pyrazin-2-ylmethoxy)propan-2-yl)amino)-1,3,2-dioxaphosphinane-4-carboxamido)propanoate] | 2.42 | > 60 | – | < 9.6 | – |
| CC(C)(C)C(=O)OCO[P@@]1(=O)OCC(C)(C)[C@H](C(=O)NCCC(=O)OC2CCN(Cc3ccccc3)C2)O1 (stereo partly drawn) [Compound No. 93, (((2S,4R)-4-((3-((1-benzylpyrrolidin-3-yl)oxy)-3-oxopropyl)carbamoyl)-5,5-dimethyl-2-oxido-1,3,2-dioxaphosphinan-2-yl)oxy)methyl pivalate] | 206.8 | > 60 | – | < 9.6 | – |
| COC(=O)CCNC(=O)[C@@H]1O[P@@](=O)(N[C@@H](C)C(=O)OC2Cc3ccccc3C2)OCC1(C)C [compound 43, 2,3-dihydio-1H-inden-2-yl ((2R,4R)-4-((3-methoxy-3-oxopropyl)carbamoyl)-5,5-dimethyl-2-oxido-1,3,2-dioxaphosphinan-2-yl)-L-alaninate] | 1.97 | > 60 | – | < 9.6 | – |
| C[C@H](NP1(=O)OCC(C)(C)[C@H](C(=O)NCCC(=O)OCc2cnccn2)O1)C(=O)OCCc1ccccc1 (stereo partly drawn) [compound 39, phenethyl ((4R)-5,5-dimethyl-2-oxido-4-((3-oxo-3-(pyrazin-2-ylmethoxy)propyl)carbamoyl)-1,3,2-dioxaphosphinan-2-yl)-L-alaninate] | 2.18 | > 60 | > 60 | < 9.6 | <9.6 |
| CC(C)(C)C(=O)OCO[P@@]1(=O)OCC(C)(C)[C@H](C(=O)NCCC(=O)OCCc2ccccn2)O1 (single isomer, unassigned) [Compound No. 82] | 99.82 | 28.8 | – | < 9.6 | – |
| COC(=O)CCNC(=O)[C@@H]1OP(=O)(N[C@@H](Cc2cccnc2)C(=O)OCc2ccccc2)OCC1(C)C (stereo partly drawn) [compound 30, (2S)-benzyl 2-(((4R)-4-((3-methoxy-3-oxopropyl)carbamoyl)-5,5-dimethyl-2-oxido-1,3,2-dioxaphosphinan-2-yl)amino)-3-(pyridin-3-yl)propanoate] | 0.93 | 49.8 | > 60 | < 9.6 | <9.6 |
| CCOCCCOC(=O)CCNC(=O)[C@@H]1O[P@@](=O)(OCOC(=O)C(C)(C)C)OCC1(C)C (single isomer, unassigned) [Compound No. 96] | 29.43 | 16.8 | – | < 9.6 | – |
| COC(=O)CCNC(=O)[C@@H]1OP(=O)(OCOC(=O)OCc2cccnc2)OCC1(C)C (stereo partly drawn) [Compound No. 97, Methyl 3-((4R)-5,5-dimethyl-2-oxido-2-((((pyridin-3-ylmethoxy)carbonyl)oxy)methoxy)-1,3,2-dioxaphosphinane-4-carboxamido)propanoate] | 77.04 | < 9.6 | – | < 9.6 | – |
